Measurements published in article PMC6956804, “Potent antibacterial activity of MSI-1 derived from the magainin 2 peptide against drug-resistant bacteria” (Theranostics, 2020).

Key:
[1] = tested on: Penicillin-resistant E. coli; assay: Local E. coli infection in scalded mouse model; type: in vivo, mice; conditions: 7th day; MSI-1 5 and 10 mg/kg, polymyxin B; p<0.01 vs the model group
Description: To further investigate whether MSI-1 could protect from bacterial infection of the skin, mice were anesthetized with pentobarbital sodium (50 mg/kg, i.p) and shaved on the dorsal surfaces. The depilated skin was secured with 2-cm-diameter plastic containers that filled up with boiling water at contact time 10 s. Afterwards, a full-thickness wound (2 cm in diameter) was cut on the burned skin of each mouse. Penicillin-resistant E. coli suspension (100 µl, 1× 10^10 CFU/ml) was slowly inoculated over wound with a pipette tip, and a gentle stream of air was aimed over the inoculation site until skin appeared wet but absent of any standing volume from the inoculum suspension. Two hours later, vehicle (3% CMC-Na), MSI-1 or polymyxin, which was suspended in sterile CMC-Na (3%) in PBS at concentration of 10, 5, 2.5 mg/ml (MSI-1) or 5 mg/ml (polymyxin), was inoculated on the same area with a pipette tip, 1 ml/kg, once a day (n=15 per group). Mice were fed in cages individually to avoid cross infection and were treated daily for 7 consecutive days. At 3rd and 7th days, cutaneous wound healing and bacteria counts in skin lesion were measured. Moreover, 12 h after the last treatment, blood samples were collected from the retro-orbital venous plexus under anesthesia (pentobarbital sodium, 50 mg/kg). Finally, all animals were euthanized by cervical dislocation to collect the lung samples for counting live bacteria. The contents of TNF-α and IL-6 in skin homogenates and serum were measured by ELISA. Skin lesion was fixed by 4% paraformaldehyde for H&E staining. The expression levels of EGF and VEGF in skin lesion were examined by immunohistochemistry. In addition, the wound scratch assay was also performed on HaCaT cells to further test whether MSI-1 improved wound healing by promoting keratinocyte migration.

[2] = tested on: penicillin resistant-E. coli isolates; assay: Acute systemic E. coli infection in mice; type: in vivo, BALB/c mice; conditions: 7 days; polymyxin 5 mg/kg
Description: BALB/c mice (5-6 weeks) were purchased from the Laboratory Animal Center of Yangzhou University (Yangzhou, Jiangsu, China) and intraperitoneally (ip) injected with 500 μl (5× 10^8 CFU/ml) of penicillin resistant-E. coli isolates. Mice in MSI-1 treated groups (10, 5 and 2.5 mg/kg, n=16/group) and polymyxin treated group (5 mg/kg) were administered after 2 h post bacterial inoculation. After 12 h, six mice in each group were anesthetized with pentobarbital sodium (50 mg/kg body weight, i.p) and euthanized by cervical dislocation to count bacterial colonies in blood, lung, spleen, kidney and liver. Lung homogenates were collected for Gram staining. Moreover, serum TNF-α and IL-6 were measured by ELISA kits. The procedure of H&E staining for mouse lung was adapted from a published report. The survival and weight of other mice were monitored daily up to 7 days.

Polymyxin B
bacterial colonies in the lung and blood [1]: obviously decreased | body weight [2]: marked weight maintenance effect
